Data: US20040152903A1, “6-chloro-3-pyridylmethylpropylamine derivatives, preparation process thereof and bactericides” (priority 2004, published 2004)

What was measured:
Test in all cases: Antifungal activity test (PDA plate, hypha extension inhibition)
Format in all cases: cell-based
Microdochium nivale = conditions: 3.2 ppm in PDA culture medium
Method: (§1) (Antifungal Activity Test against Various Pathogenic Fungi) For each of the compounds I-1 to 27 of the present invention and the comparative compounds (a) to (d), (m-1) and (m-3), 20 mg was weighed and dissolved in 2 ml of dimethylsulfoxide, and a double dilution row in 10 steps was prepared by further using dimethylsulfoxide. A 0.6 ml portion of these solutions was each added to 60 ml of a PDA culture medium (potato-dextrose-agar culture medium) at about 60° C., they were well mixed in a 100 ml Erlenmeyer flask, the solution was poured into a schale and was solidified, the plate culture media containing the compounds according to the present invention with final concentrations of 100, 50.0, 25.0, 12.5, 6.3, 3.2, 1.6, 0.8, 0.4 and 0.2 mg/l were prepared. On the other hand, the specimen bacteria cultured on the plate culture media beforehand was punched by a 4 mm diameter cork borer, and was inoculated on the plate culture media containing the aforementioned chemicals. After the inoculation, the bacteria were cultured at the optimum growth temperature of each bacterium for 1 to 7 days (for this optimum growth temperature, LIST OF CULTURES 1996 Microorganisms 10th edition published by Fermentation Research Institute (Foundation) can be referred to.), and the growth of the bacteria was measured by the diameter of a colony. […]

Septoria tritici = conditions: 100 ppm in PDA culture medium
Method: (Antifungal Activity Test against Various Pathogenic Fungi) For each of the compounds I-1 to 27 of the present invention and the comparative compounds (a) to (d), (m-1) and (m-3), 20 mg was weighed and dissolved in 2 ml of dimethylsulfoxide, and a double dilution row in 10 steps was prepared by further using dimethylsulfoxide. A 0.6 ml portion of these solutions was each added to 60 ml of a PDA culture medium (potato-dextrose-agar culture medium) at about 60° C., they were well mixed in a 100 ml Erlenmeyer flask, the solution was poured into a schale and was solidified, the plate culture media containing the compounds according to the present invention with final concentrations of 100, 50.0, 25.0, 12.5, 6.3, 3.2, 1.6, 0.8, 0.4 and 0.2 mg/l were prepared. On the other hand, the specimen bacteria cultured on the plate culture media beforehand was punched by a 4 mm diameter cork borer, and was inoculated on the plate culture media containing the aforementioned chemicals. After the inoculation, the bacteria were cultured at the optimum growth temperature of each bacterium for 1 to 7 days (for this optimum growth temperature, LIST OF CULTURES 1996 Microorganisms 10th edition published by Fermentation Research Institute (Foundation) can be referred to.), and the growth of the bacteria was measured by the diameter of a colony. […] R=100(dc−dt)/dc (Equation 3) [wherein each symbol is shown as follows: R=Hypha extension inhibition rate (%), dc=Diameter of colony on no-treated plate, dt=Diameter of colony on chemical-treated plate.] The results obtained above was evaluated in 5 steps in accordance with the following examination scale. <Growth Inhibition> 5: Hypha extension inhibition rate of 90% or more 4: Hypha extension inhibition rate of from 70% to less than 90% 3: […] 2: […] In addition, the abbreviations in Table 10 are as follows: S.t: Septoria tritici

Rhynchosporium secalis = conditions: 100 ppm in PDA culture medium
Method: as §1

CC(Cc1ccc(C(F)(F)F)c(F)c1F)CN(C)Cc1ccc(Cl)nc1 (stereo not drawn) [Compound I-10]
Growth Inhibition M.n (3.2) (Microdochium nivale): 4 (Hypha extension inhibition rate of from 70% to less than 90%) | Growth Inhibition S.t (100) (Septoria tritici): 4 (Hypha extension inhibition rate of from 70% to less than 90%) | Growth Inhibition R.s (100) (Rhynchosporium secalis): 4 (Hypha extension inhibition rate of from 70% to less than 90%)

CC(Cc1ccc2c(c1)OC(F)(F)O2)CN(C)Cc1ccc(Cl)nc1 (stereo not drawn) [Compound I-24]
Growth Inhibition M.n (3.2) (Microdochium nivale): 4 (Hypha extension inhibition rate of from 70% to less than 90%) | Growth Inhibition S.t (100) (Septoria tritici): 4 (Hypha extension inhibition rate of from 70% to less than 90%) | Growth Inhibition R.s (100) (Rhynchosporium secalis): 5 (Hypha extension inhibition rate of 90% or more)
